Measured values published in paper PMC5601360 (Journal of Medicinal Chemistry, 2017).
Like-named read-outs stand apart in the source and are kept apart here.

Columns and labels:
[1] = biological target: T1, human KOP receptor (Homo sapiens, UniProt P41145); settings: percentage stimulation relative to the KOP full agonist U69,593; ref 9a; cited from earlier work
T1 construct: expressed in transfected cells; host or cells: CHO-hKOP cells (gift of Dr. Lawrence Toll, SRI International)

[2] = system: mice; settings: icv, ref 9d; cited from earlier work
[3] = biological target: T1, human KOP receptor; settings: ref 9a, cited from earlier work
[4] = biological target: T2, human DOP receptor (Homo sapiens, UniProt P41143); settings: CHO-hDOP membranes; ref 9a; read-out: receptor binding affinity Ki DOP; cited from earlier work
T2 construct: expressed in transfected cells; host or cells: CHO-hDOP cells (gift of Dr. Lawrence Toll, SRI International)

[5] = system: acetic acid-induced writhing in CD1 mice; test: Acetic acid-induced writhing assay in mice after sc administration; type: in vivo; settings: for ED50: Mus musculus, 0.5 h, CD1 mice, inhibition of writhing at 30 min after drug administration, read-out: antinociceptive ED50 (95% CI); for antagonism by nor-BNI of the antinociceptive effect: nor-BNI 20 mg/kg sc 24 h before agonist (2: 5 mg/kg; 3: 1 mg/kg; 4: […] sc)
Protocol: Male CD1 mice (30–35 g, 6–8 weeks old) were obtained from the Center of Biomodels and Experimental Medicine (CBEM) (Innsbruck, Austria) or Charles River (Sulzfeld, Germany). Mice were group-housed in a temperature controlled room with a 12 h light/dark cycle and with free access to food and water. All animal studies were conducted in accordance with ethical guidelines and animal welfare standards according to Austrian regulations for animal research and were approved by the Committee of Animal Care of the Austrian Federal Ministry of Science and Research. Solutions of test compounds were prepared as 1% DMSO solutions in sterile physiological 0.9% saline and further diluted to working doses in saline solution. Test compounds or vehicle (saline) were administered by sc route in a volume of 10 μL/1 g of body weight. All doses are expressed in terms of salts. Separate groups of mice received the respective dose of compound, and individual mice were only used once for behavioral testing. Each experimental group included at least five animals.
Writhing was induced in male CD1 mice by intraperitoneal (ip) injection of a 0.6% acetic acid aqueous solution as described previously.[9a] Groups of mice were administered sc different doses of test compound or saline (control), and then 5 min prior to testing (25 min after drug or saline) each animal received an ip injection of acetic acid solution. Each mouse was placed in individual transparent Plexiglas chambers, and the number of writhes was counted during a 10 min observation period. […] For the antagonism studies, nor-BNI (20 mg/kg) was sc administered 24 h before 2 (5 mg/kg) and 17 (10 mg/kg) was sc administered 15 min before U50,488 (2 mg/kg).

[6] = system: CD1 mice; settings: mouse, in vivo, sc; for effect on rotarod latencies (motor behavior): 7.5 mg/kg
[7] = biological target: T3, human MOP receptor (Homo sapiens, UniProt P35372); test: Competition binding assay, CHO-hMOP cell membranes, [3H]DAMGO; settings: mean ± SEM, read-out: receptor binding affinity Ki MOP
T3 construct: expressed in transfected cells; host or cells: CHO-hMOP cells (gift of Dr. Lawrence Toll, SRI International)
Protocol: (§1) CHO cells stably expressing recombinant human KOP, MOP, or DOP receptors (CHO-hKOP, CHO-hMOP, and CHO-hDOP cell lines) were kindly provided by Dr. Lawrence Toll (SRI International, Menlo Park, CA). The CHO-hKOP cell line was maintained in Dulbecco’s Minimal Essential Medium (DMEM) supplemented with fetal bovine serum (FBS, 10%), penicillin/streptomycin (0.1%), L-glutamine (2 mM), and geneticin (400 μg/mL). The CHO-hMOP and CHO-hDOP cell lines were maintained in DMEM/Ham’s F-12 medium supplemented with FBS (10%), penicillin/streptomycin (0.1%), L-glutamine (2 mM), and geneticin (400 μg/mL). Cell cultures were maintained at 37 °C in 5% CO2 humidified air.
(§2) . Nonspecific binding was determined using 1–10 μM of the unlabeled counterpart of each radioligand. Assays were performed in 50 mM Tris-HCl buffer (pH 7.4) in a final volume of 1 mL. Cell membranes (15–20 μg) were incubated with the appropriate radioligand and various concentrations of test compound for 60 min at 25 °C. After incubation, reactions were terminated by rapid filtration through Whatman glass fiber filters. Filters were washed three times with 5 mL of ice-cold 50 mM Tris-HCl buffer (pH 7.4) using a Brandel M24R cell harvester (Gaithersburg, MD). Radioactivity retained on the filters was counted by liquid scintillation counting using a Beckman Coulter LS6500 (Beckman Coulter Inc., Fullerton, CA). All binding experiments were performed in duplicate and repeated at least three times. The inhibitory constant Ki values (in nM) were calculated from the competition binding curves by nonlinear regression analysis and the Cheng–Prusoff equation.[16]

[8] = biological target: T1, human KOP receptor; test: Competition binding assay, CHO-hKOP cell membranes, [3H]U69,593; settings: for Ki: CHO-hKOP membranes, mean ± SEM, read-out: receptor binding affinity Ki KOP; for selectivity DOP/KOP: Ki ratio DOP/KOP; for selectivity MOP/KOP: Ki ratio MOP/KOP
Protocol: as §1
as §2, with “Nonspecific” for “. Nonspecific”

[9] = biological target: T2, human DOP receptor; test: Competition binding assay, CHO-hDOP cell membranes, [3H]diprenorphine; settings: mean ± SEM, read-out: receptor binding affinity Ki DOP
Protocol: as §1, §2

[10] = biological target: T1, human KOP receptor; test: [35S]GTPγS binding assay using CHO-hKOP cell membranes; type: biochemical; settings: for EC50: CHO-hKOP membranes, mean ± SEM; for Emax: read-out: [35S]GTPγS KOP % stim
Protocol: The binding of [^35S]GTPγS to membranes from CHO cells stably expressing human KOP receptors (CHO-hKOP cells) was conducted according to the published procedures.[9a],[9b] CHO-hKOP cell membranes were prepared in buffer A (20 mM HEPES, 10 mM MgCl2, and 100 mM NaCl, pH 7.4). Cell membranes (8–15 μg) in buffer A were incubated with 0.05 nM [^35S]GTPγS, 10 μM GDP, and various concentrations of test compound in a final volume of 1 mL for 60 min at 25 °C. Nonspecific binding was determined using 10 μM GTPγS, and the basal binding was determined in the absence of test ligand. Samples are filtered over glass fiber filters and counted as described for binding assays. […] To determine the KOP antagonist activity, a concentration–response curve for U69,593 was obtained by assessing the [^35S]GTPγS binding to CHO-hKOP cell membranes in the presence or absence of test compound, as previously described.[9b] For each compound, the Schild analysis was conducted, utilizing a full agonist–dose response curve in the presence of at least two concentrations of the antagonist. The equilibrium dissociation constant (Ke) was calculated from the equation Ke = [a]/(DR – 1), where “a” is the concentration of antagonist and DR the virtual shift of the agonist concentration–response curve to the right in the presence of a given concentration of antagonist. All experiments were performed in duplicate and repeated at least three times.

[11] = percentage stimulation relative to the KOP full agonist U69,593

Compound | ED50 ([5]; sc) [mg/kg] | antagonism by nor-BNI of the antinociceptive effect [5] | Ki [7] [nM] | Ki [8] [nM] | selectivity DOP/KOP [8] | selectivity MOP/KOP [8] | effect on rotarod latencies (motor behavior) [6] | Ki [9] [nM] | EC50 [10] [nM] | Emax [10, 11] [%] | other results
Oc1cccc(CCN(CCc2ccccc2)CC2CC2)c1 [Compound 2] | 3.23 | blocked by nor-BNI |  |  |  |  |  |  |  |  | [35S]GTPγS KOP % stim [1]: 53.4 ± 8.1%; antinociceptive potency compared to U50,488 [2]: equipotent; selectivity DOP/KOP ([3]; Ki ratio DOP/KOP): >1700; selectivity MOP/KOP ([3]; Ki ratio MOP/KOP): 140; Ki [4]: > 10000 nM; inhibition of the writhing response ([5]; sc, different doses, 30 min after drug administration): Dose-dependent inhibition of the writhing response; effect on rotarod performance (evoked locomotor activity) [6]: did not affect the evoked locomotor activity
Cl.Oc1cccc(CCN(CCc2ccccc2)CC2CCCC2)c1 [Compound 3, 3-[2-[(Cyclopentylmethyl)(phenethyl)amino]ethyl]phenol Hydrochloride] | 0.49 | antagonized by the KOP antagonist nor-BNI | 274 ± 20 | 0.017 ± 0.002 | 133471 | 16118 | no significant alterations in rotarod latencies | 2270 ± 625 | 3.87 ± 1.44 | ≥ 80 | increase in antinociceptive potency vs U50,488 ([5]; sc, ED50 comparison): about 3 fold; increase in antinociceptive potency vs compound 1 ([5]; sc, ED50 comparison): 4 fold; increase in antinociceptive potency vs compound 2 ([5]; sc, ED50 comparison): 7 fold
Cl.Oc1cccc(CCN(CCc2ccccc2)CC2CCCCC2)c1 [Compound 4, 3-[2-[(Cyclohexylmethyl)(phenethyl)amino]ethyl]phenol Hydrochloride] | 1.01 | antagonized by the KOP antagonist nor-BNI | 537 ± 172 | 0.061 ± 0.027 | 35066 | 8803 | no significant alterations in rotarod latencies | 2140 ± 346 | 0.23 ± 0.08 | 61.9 | reduction in antinociceptive potency vs compound 3 ([5]; sc, ED50 comparison): about 2 fold; increase in agonist potency vs compound 1 ([10]; EC50 comparison): 16 fold; [35S]GTPγS KOP % stim [10, 11]: 61.9 ± 8.1%
Cl.Oc1ccc(CCN(CCc2cccc(O)c2)CC2CC2)cc1 [Compound 17, 3-[2-[(Cyclopropylmethyl)(4-hydroxyphenethyl)amino]ethyl]phenol Hydrochloride] |  |  | 460 ± 127 | 3.56 ± 0.94 | >2800 | 129 |  | > 10000 |  |  | agonist activity in vivo (effect on pain behavior alone) ([5]; 10 mg/kg sc, compared to control mice): did not affect pain behavior; antagonism of U50,488-induced antinociception ([5]; 17 10 mg/kg sc 15 min before U50,488 2 mg/kg sc): complete reversal of U50,488-induced analgesia; Kd ([10]; antagonist Ke at the KOP receptor against U69,593): 24.3 ± 1.5 nM; functional activity profile at the KOP receptor ([10]; in vitro, [35S]GTPγS): KOP antagonism
Cl.Oc1cccc(CCN(CCc2ccccc2)CC2CCC2)c1F [Compound 18, 3-[2-[(Cyclobutylmethyl)(phenethyl)amino]ethyl]-2-fluorophenol Hydrochloride] | 2.64 |  | 398 ± 57 | 0.072 ± 0.027 | >138000 | 5529 | no significant alterations in rotarod latencies | > 10000 | 6.9 ± 3.35 | 71.4 | 
Cl.Oc1cccc(CCN(CCc2ccccc2)CC2CCCCC2)c1F [Compound 19, 3-[2-[(Cyclohexylmethyl)(phenethyl)amino]ethyl]-2-fluorophenol Hydrochloride] | 1.33 |  | 851 ± 292 | 0.04 ± 0.006 |  |  | no significant alterations in rotarod latencies | > 10000 | 2.77 ± 0.29 | ≥ 80 | 
Cl.Oc1cccc(CCN(CCc2cccc(O)c2F)CC2CCC2)c1 [Compound 20, 3-[2-[(Cyclobutylmethyl)(3-hydroxyphenethyl)amino]ethyl]-2-fluorophenol Hydrochloride] | 2.25 |  | 557 ± 198 | 0.12 ± 0.01 | >83000 | 4642 |  | > 10000 | 1.49 ± 0.04 | 57.5 ± 4.4 | increase in KOP affinity vs compound 8 ([8]; Ki comparison): about 3 fold
Cl.Oc1ccc(CCN(CCc2cccc(O)c2F)CC2CCC2)cc1 [Compound 21, 3-[2-[(Cyclobutylmethyl)(4-hydroxyphenethyl)amino]ethyl]-2-fluorophenol Hydrochloride] | 2.14 |  | 523 ± 33 | 3.37 ± 1.54 | 389 | 155 |  | 1310 ± 281 | 36.7 ± 14 | 69.1 ± 1.9 | increase in selectivity KOP vs DOP compared to compound 14 ([8]; selectivity ratio comparison): 3 fold; increase in selectivity KOP vs MOP compared to compound 14 ([8]; selectivity ratio comparison): 31 fold
